In patent publication US20210260036A1, “METHODS OF TREATMENT FOR ALPHA-1 ANTITRYPSIN DEFICIENCY” (Vertex Pharmaceuticals Incorporated, priority 2020, published 2021):

Tests used:
healthy subjects = assay: Phase 1 randomized, double-blinded, placebo-controlled single and multiple-dose study; assay type: in vivo, human; conditions: single and multiple doses
Description: A randomized, double-blinded, placebo-controlled single and multiple-dose Phase I study evaluating Compound I has been completed in healthy subjects.

Z-AAT [1] = molecular target: T1, Z-AAT (Homo sapiens, UniProt P01009, E366K); assay: Z-AAT folding, polymerization and secretion in cell line models; assay type: cell-based; conditions: multiple cell line models
T1 sequence (P01009 25-418 E366K): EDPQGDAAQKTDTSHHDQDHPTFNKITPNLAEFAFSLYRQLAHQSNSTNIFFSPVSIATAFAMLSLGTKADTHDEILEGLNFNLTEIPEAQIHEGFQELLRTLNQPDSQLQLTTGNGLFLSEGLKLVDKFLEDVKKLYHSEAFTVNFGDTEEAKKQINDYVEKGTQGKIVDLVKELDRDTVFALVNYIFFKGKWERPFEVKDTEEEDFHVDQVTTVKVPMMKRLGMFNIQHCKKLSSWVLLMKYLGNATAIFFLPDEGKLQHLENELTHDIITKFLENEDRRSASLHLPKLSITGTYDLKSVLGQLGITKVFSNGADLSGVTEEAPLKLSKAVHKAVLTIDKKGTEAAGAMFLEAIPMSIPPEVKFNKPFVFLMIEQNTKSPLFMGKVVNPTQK
Description: (§1) 4-[5-(4-fluorophenyl)-6-tetrahydropyran-4-yl-1H-pyrrolo[2,3-f]indazol-7-yl]benzoic acid (Compound I), disclosed in PCT/US2020/032832, filed on May 14, 2020, is being developed as a treatment for AATD. […] Thus, Compound I has the potential to address both the loss-of-function and the gain-of-function aspects of the Z mutation. By restoring physiological levels of circulating AAT activity, Compound I may reduce the risk of lung disease. By preventing Z-polymer formation in the liver, Compound I may reduce the risk of developing progressive liver disease (fibrosis and cirrhosis).

Z-AAT [2] = molecular target: T1, Z-AAT; assay: Z-AAT folding and secretion in transgenic mice expressing human Z-AAT; assay type: in vivo; set-up: expressed in transfected cells; host or cells: transgenic mice expressing human Z-AAT; conditions: transgenic mice engineered to express human Z-AAT
Description: as §1

folding of Z-AAT (Z-AAT [1]): promotes the proper folding of Z-AAT
SMILES: O=C(O)c1ccc(-c2c(C3CCOCC3)n(-c3ccc(F)cc3)c3cc4cn[nH]c4cc23)cc1 [Compound I, 4-[5-(4-fluorophenyl)-6-tetrahydropyran-4-yl-1H-pyrrolo[2,3-f]indazol-7-yl]benzoic acid]
safety and tolerability (healthy subjects): safe and well-tolerated
serious adverse events (healthy subjects): no serious adverse events
intracellular Z-AAT protein polymerization (Z-AAT [1]): preventing intracellular Z-AAT protein polymerization
secretion of functionally active AAT (Z-AAT [1]): increasing secretion of functionally active AAT
folding and secretion of functionally active AAT (Z-AAT [2]): facilitates proper folding and secretion of functionally active AAT
